≈ marks a conversion by molar mass, not a printed value. Where two headings read alike, the source gives them in different places.
Columns and labels:
[1] = with β-cyclodextrin; Menard et al 1990; cited from earlier work
physchem = details: water
Experimental: (§1) The solubilities (in mg/ml) of the drugs were investigated at 30° C., in water; in water containing 2% β-cyclodextrin; and in aqueous solution of 2% selected cyclodextrin and 1% selected polyfunctional acid or corresponding salt.

[2] = 30° C.; for Solubility, beta-cyclodextrin + citric acid / Solubility, beta-cyclodextrin + glutaric acid / Solubility, beta-cyclodextrin + lactic acid / Solubility, beta-cyclodextrin + tartaric acid: 2% β-cyclodextrin; for Solubility, beta-cyclodextrin + lactic acid: 1% lactic acid; for Solubility in 2% aq. beta CD soln.: water containing 2% β-cyclodextrin
Experimental: as §1

Structure (SMILES) | Relationship between solubility and concentration at different pH [1] | Solubility, beta-cyclodextrin + glutaric acid (*trisodium salt) (2% beta-cd, 1% glutarate salt) [µg/mL] | Solubility, beta-cyclodextrin + tartaric acid (*trisodium salt) (2% beta-cd, 1% tartrate salt) [µg/mL] | Solubility in 2% aq. beta CD soln. (water, 2% beta-cyclodextrin) [µg/mL] | solubility (physchem) [µg/mL] | Solubility, alpha-cyclodextrin + citric acid ([2]; 2% α-cyclodextrin, 1% citric acid, aqueous) [µg/mL] | Solubility, alpha-cyclodextrin + glutaric acid ([2]; 2% α-cyclodextrin, 1% glutaric acid, aqueous) [µg/mL] | Solubility, alpha-cyclodextrin + tartaric acid ([2]; 2% α-cyclodextrin, 1% tartaric acid, aqueous) [µg/mL] | Solubility, beta-cyclodextrin + citric acid ([2]; 1% citric acid, aqueous) [µg/mL] | Solubility, beta-cyclodextrin + glutaric acid ([2]; 1% glutaric acid, aqueous) [µg/mL] | Solubility, beta-cyclodextrin + lactic acid ([2]; aqueous) [µg/mL] | Solubility, beta-cyclodextrin + tartaric acid ([2]; 1% tartaric acid, aqueous) [µg/mL] | Solubility, gamma-cyclodextrin + citric acid ([2]; 2% γ-cyclodextrin, 1% citric acid, aqueous) [µg/mL] | Solubility, gamma-cyclodextrin + glutaric acid ([2]; 2% γ-cyclodextrin, 1% glutaric acid, aqueous) [µg/mL] | Solubility, gamma-cyclodextrin + tartaric acid ([2]; 2% γ-cyclodextrin, 1% tartaric acid, aqueous) [µg/mL] | Solubility in 2% aq. beta CD soln. [2] [µg/mL] | Solubility in water ([2]; water)
CC(C)Cc1ccc(C(C)C(=O)O)cc1 (stereo not shown) [Ibuprofen] | the relationship between solubility and concentration is the same at different pH levels | 3000 | 1360 | 690 (≈ 3340 µM) | < 10 | – | – | – | – | – | – | – | – | – | – | – | –
CC(C)(C)c1ccc(C(O)CCCN2CCC(C(O)(c3ccccc3)c3ccccc3)CC2)cc1 (stereo not shown) [Terfenadine] | – | – | – | – | < 10 | 2150 | 7170 | 1310 | 5680 | 5490 | 8870 | 5210 | 2200 | 6080 | 1220 | 10 (≈ 21.2 µM) | –
CN1C(C(=O)Nc2ccccn2)=C(O)c2ccccc2S1(=O)=O [Piroxicam] | – | – | – | – | – | – | – | – | – | – | – | – | – | – | – | 72 (≈ 217 µM) | insoluble
COc1cc(N)c(Cl)cc1C(=O)NC1CCN(CCCOc2ccc(F)cc2)CC1OC (stereo not shown) [Cisapride] | – | – | – | – | 3 (≈ 6.44 µM) | – | – | – | 550 | 2070 | 11400 | 4380 | – | – | – | 15 (≈ 32.2 µM) | –
